Our source for the IC50 values is patent US20210198277A1, “AMINE-SUBSTITUTED ARYL OR HETEROARYL COMPOUNDS” (Epizyme, Inc., priority 2016, published 2021).

This assay has as its target T1, EHMT2 (Homo sapiens, UniProt Q96KQ7).
T1 construct: host or cells: MDA-MB-231
T1 sequence (Q96KQ7 1-1210): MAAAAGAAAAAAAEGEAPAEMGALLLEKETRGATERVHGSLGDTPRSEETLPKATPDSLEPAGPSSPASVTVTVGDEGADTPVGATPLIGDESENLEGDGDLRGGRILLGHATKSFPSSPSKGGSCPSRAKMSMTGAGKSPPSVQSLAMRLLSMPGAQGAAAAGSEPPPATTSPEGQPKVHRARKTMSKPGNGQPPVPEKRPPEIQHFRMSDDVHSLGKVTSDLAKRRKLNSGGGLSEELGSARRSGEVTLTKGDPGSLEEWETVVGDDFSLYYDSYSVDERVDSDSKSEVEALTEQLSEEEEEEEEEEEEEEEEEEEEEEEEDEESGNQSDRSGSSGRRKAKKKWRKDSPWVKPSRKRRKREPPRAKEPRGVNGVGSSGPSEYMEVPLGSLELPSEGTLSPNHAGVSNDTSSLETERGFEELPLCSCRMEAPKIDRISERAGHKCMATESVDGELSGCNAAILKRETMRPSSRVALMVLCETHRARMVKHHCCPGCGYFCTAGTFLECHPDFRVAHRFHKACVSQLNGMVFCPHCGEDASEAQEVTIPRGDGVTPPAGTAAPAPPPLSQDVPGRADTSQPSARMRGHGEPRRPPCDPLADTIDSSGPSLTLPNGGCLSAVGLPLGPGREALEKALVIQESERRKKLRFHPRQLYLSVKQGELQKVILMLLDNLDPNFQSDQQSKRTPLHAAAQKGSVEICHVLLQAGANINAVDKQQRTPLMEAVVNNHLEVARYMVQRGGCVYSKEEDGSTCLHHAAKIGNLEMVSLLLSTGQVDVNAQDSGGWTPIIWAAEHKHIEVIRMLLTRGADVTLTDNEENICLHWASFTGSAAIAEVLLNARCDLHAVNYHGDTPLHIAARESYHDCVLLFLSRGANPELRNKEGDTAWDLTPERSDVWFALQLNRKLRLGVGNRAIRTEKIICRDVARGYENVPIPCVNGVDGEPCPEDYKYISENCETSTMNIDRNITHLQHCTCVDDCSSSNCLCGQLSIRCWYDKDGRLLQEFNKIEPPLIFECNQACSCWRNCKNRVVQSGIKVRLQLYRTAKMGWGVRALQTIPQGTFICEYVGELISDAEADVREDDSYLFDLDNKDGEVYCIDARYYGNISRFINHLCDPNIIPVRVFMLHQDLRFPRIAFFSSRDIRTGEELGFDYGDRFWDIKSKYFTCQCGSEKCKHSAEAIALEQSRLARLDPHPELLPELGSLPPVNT
Put plainly: MDA-MB-231 H3K9me2 in-cell Western assay (EHMT2 ICW). In kind it is cell-based. As to conditions: Table II; MDA-MB-231 H3K9me2 in-cell Western; read-out: EHMT2 ICW (IC50 μM). The source says: RPMI/Glutamax medium, Penicillin-Streptomycin, Heat Inactivated Fetal Bovine Serum, and D-PBS were purchased from Life Technologies (Grand Island, N.Y., USA). Odyssey blocking buffer, 800CW goat anti-mouse IgG (H+L) antibody, and Licor Odyssey Infrared Scanner were purchased from Licor Biosciences, Lincoln, Nebr., USA. […] 16% Paraformaldehyde was purchased from Electron Microscopy Sciences, Hatfield, Pa., USA).MDA-MB-231 cells were maintained in complete growth medium (RPMI supplemented with 10% v/v heat inactivated fetal bovine serum) and cultured at 37° C. under 5% CO2. UNC0638 was purchased from Sigma-Aldrich (St. Louis, Mo., USA).
Compound (100 nL) was added directly to 384-well cell plate. MDA-MB-231 cells (ATCC) were seeded in assay medium (RPMI/Glutamax supplemented with 10% v/v heat inactivated fetal bovine serum and 1% Penicillin/Streptomycin, Life Technologies) at a concentration of 3,000 cells per well to a Poly-D-Lysine coated 384-well cell culture plate with 50 μL per well. […] Plates were incubated at room temperature for 30 minutes and then incubated at 37° C., 5% CO2 for additional 48 hours. After the incubation, 50 μL per well of 8% paraformaldehyde (Electron Microscopy Sciences) in PBS was added to the plates and incubated at room temperature for 20 minutes. […] Next, 60 μL per well of Odyssey blocking buffer (Licor Biosciences) was added to each plate and incubated for 1 hour at room temperature. Blocking buffer was removed and 20 μL of monoclonal primary antibody α-H3K9me2 (Abcam) diluted 1:800 in Odyssey buffer with 0.1% Tween 20 (v/v) were added and plates were incubated overnight (16 hours) at 4° C. Plates were washed 5 times with 100 μL per well of wash buffer. Next 20 μL per well of secondary antibody was added (1:500 800CW donkey anti-mouse IgG (H+L) antibody (Licor Biosciences), 1:1000 DRAQ5 (Cell Signaling Technology) in Odyssey buffer with 0.1% Tween 20 (v/v)) and incubated for 1 hour at room temperature. The plates were washed 5 times with 100 μL per well wash buffer then 2 times with 100 μL per well of water. Plates were allowed to dry at room temperature then imaged on a Licor Odyssey Infrared Scanner (Licor Biosciences) which measured integrated intensity at 700 nm and 800 nm wavelengths. Both 700 and 800 channels were scanned.
First, the ratio for each well was determined by:
The average of the ratio values for each well was calculated and used to determine the percent inhibition for each test well in the plate. Control compound was serially diluted three-fold in DMSO for a total of 10 test concentrations beginning at 1 μM. Percent inhibition was calculated as: […]
IC50 curves were generated using triplicate wells per concentration of compound. […] IC50 values were calculated using a non-linear regression (variable slope-four parameter fit model) with by the following formula: […]

Turning to `COc1ccc(Nc2nccc(N(C)Cc3ccccn3)n2)cc1OCCCN1CCCC1` [Compound 136], the half-maximal inhibitory concentration (IC50) (in general, the concentration needed to halve the response being measured) was over 10 µM.

On to `COc1ccc(Nc2nccc(NC3COC3)n2)cc1OCCCN1CCCC1` [Compound 137], for which the half-maximal inhibitory concentration (IC50) was over 10 µM.

As to `COc1ccc(Nc2nccc(N3CCCN(C(C)=O)CC3)n2)cc1OCCCN1CCCC1` [Compound 138], the IC50 was over 10 µM. With `COc1ccc(Nc2nccc(N3CCN(C(C)=O)CC3)n2)cc1OCCCN1CCCC1` [Compound 139], the half-inhibitory concentration (IC50) is over 10 µM. With `COc1ccc(Nc2nccc(N(C)CCCO)n2)cc1OCCCN1CCCC1` [Compound 140] the figure was over 10 µM; with `COc1ccc(Nc2nccc(N3CCC(C)(O)CC3)n2)cc1OCCCN1CCCC1` [Compound 141], over 10 µM. As for `COc1ccc(Nc2nccc(N(C)C3CCOCC3)n2)cc1OCCCN1CCCC1` [Compound 142], the IC50 was over 10 µM. Take `COCCCN(C)c1ccnc(Nc2ccc(OC)c(OCCCN3CCCC3)c2)n1` [Compound 143]: the IC50 is over 10 µM.

For `COc1ccc(Nc2nccc(CNC(C)=O)n2)cc1OCCCN1CCCC1` [Compound 144], the half-maximal inhibitory concentration (IC50) was over 10 µM. Consider `CC(=O)N1CCC(CNc2ccnc(Nc3ccc(C)c(OCCCN4CCCC4)c3)n2)CC1` [Compound 145], for which the IC50 was over 10 µM. With `COc1ccc(Nc2nccc(N(C)CC3CCOCC3)n2)cc1OCCCN1CCCC1` [Compound 146], the IC50 lay in the range of 1 to 10 µM. Regarding `COc1ccc(Nc2nccc(N3CCC(C(C)(C)O)CC3)n2)cc1OCCCN1CCCC1` [Compound 147], the IC50 is over 10 µM. In the case of `COc1ccc(Nc2nccc(N3CCC(O)CC3)n2)cc1OCCCN1CCCC1` [Compound 148], the IC50 is over 10 µM.

As for `COc1ccc(Nc2nccc(N3CCC(OC)CC3)n2)cc1OCCCN1CCCC1` [Compound 149], the IC50 is over 10 µM. As to `COc1ccc(Nc2nccc(N(C)CCO)n2)cc1OCCCN1CCCC1` [Compound 150], the IC50 was over 10 µM. Regarding `COc1ccc(Nc2nccc(N3CCCOCC3)n2)cc1OCCCN1CCCC1` [Compound 151], the IC50 is over 10 µM. For `COc1ccc(Nc2nccc(NC3CCS(=O)(=O)CC3)n2)cc1OCCCN1CCCC1` [Compound 152], the half-maximal inhibitory concentration (IC50) was over 10 µM. On to `COc1ccc(Nc2nccc(N3CCC(C(N)=O)CC3)n2)cc1OCCCN1CCCC1` [Compound 153], for which the IC50 is over 10 µM. As for `COc1ccc(Nc2nccc(N3CCNc4ccccc4C3)n2)cc1OCCCN1CCCC1` [Compound 154], the IC50 was over 10 µM. Consider `COc1ccc(Nc2nccc(N3CCc4cn[nH]c4C3)n2)cc1OCCCN1CCCC1` [Compound 155], for which the IC50 was over 10 µM.

Take `COc1ccc(Nc2nccc(N3CCc4ncncc4C3)n2)cc1OCCCN1CCCC1` [Compound 156]: the 50% inhibitory concentration (IC50) was over 10 µM. For `COc1ccc(Nc2ccnc(OCC3CCN(C(C)=O)CC3)c2)cc1OCCCN1CCCC1` [Compound 157], the concentration for half-maximal inhibition (IC50) is over 10 µM.

As for `COc1ccc(N(C)c2nccc(NCC3CCN(C(C)=O)CC3)n2)cc1OCCCN1CCCC1` [Compound 158], the half-inhibitory concentration (IC50) is over 10 µM. Under `COc1ccc(Nc2nccc(NCC3CCN(C)CC3)n2)cc1OCCCNc1ccccc1` [Compound 159] stands 1 to 10 µM; under `COc1ccc(Nc2nccc(NCC3CCN(C(C)=O)CC3)n2)cc1OCCCNc1ccccc1` [Compound 160], over 10 µM. With `COc1ccc(Nc2nccc(N3CCC(NC(C)=O)CC3)n2)cc1OCCCN1CCCC1` [Compound 161] the figure was over 10 µM; with `COc1ccc(Nc2nccc(N3CCN(S(C)(=O)=O)CC3)n2)cc1OCCCN1CCCC1` [Compound 162], over 10 µM; with `COc1ccc(Nc2cc(N(C)CC3CCN(C(C)=O)CC3)ccn2)cc1OCCCN1CCCC1` [Compound 163], over 10 µM. Turning to `COc1ccc(Nc2nccc(NCc3ccc4[nH]ncc4c3)n2)cc1OCCCN1CCCC1` [Compound 164], the 50% inhibitory concentration (IC50) is over 10 µM. Under `COc1ccc(Nc2nccc(NCc3ccc(=O)[nH]c3)n2)cc1OCCCN1CCCC1` [Compound 165] stands over 10 µM.

Turning to `COc1ccc(Nc2nccc(NCC3CCN(C(C)=O)CC3)n2)cc1OCCC(=O)N1CCCC1` [Compound 166], the IC50 is over 10 µM. For `COc1ccc(Nc2nccc(NCCc3ccccn3)n2)cc1OCCCN1CCCC1` [Compound 167], the half-maximal inhibitory concentration (IC50) was in the range of 0.1 to 1 µM. With `COc1ccc(Nc2nccc(N3CCN(c4ccccn4)CC3)n2)cc1OCCCN1CCCC1` [Compound 168] the figure was 1 to 10 µM; with `COc1ccc(Nc2nccc(N3CCS(=O)(=O)CC3)n2)cc1OCCCN1CCCC1` [Compound 169], over 10 µM.

As for `COc1ccc(Nc2nccc(N3CC(C(=O)N(C)C)C3)n2)cc1OCCCN1CCCC1` [Compound 170], the IC50 is over 10 µM. With `COc1ccc(Nc2nccc(N(C)C)n2)cc1OCCCN1CCCC1` [Compound 171], the IC50 lay within 1 to 10 µM. Under `COc1ccc(Nc2nccc(N(C)CC3CCN(C(C)=O)CC3)n2)cc1OCCCN1CCCC1` [Compound 172] stands over 10 µM; under `COc1ccc(Nc2cc(OCC3CCN(C(C)=O)CC3)ccn2)cc1OCCCN1CCCC1` [Compound 173], over 10 µM. Under `COc1ccc(Nc2nccc(C)n2)cc1OCCCN1CCCC1` [Compound 174] stands over 10 µM. On to `COc1ccc(Nc2nc(C)cc(C)n2)cc1OCCCN1CCCC1` [Compound 175], for which the concentration for half-maximal inhibition (IC50) was over 10 µM.

For the compound `CNc1cccc(Nc2ccc(OC)c(OCCCN3CCCC3)c2)n1` [Compound 176], the IC50 was over 10 µM. On to `COCCN(C)c1ccnc(Nc2ccc(OC)c(OCCCN3CCCC3)c2)n1` [Compound 177], for which the IC50 is over 10 µM. Under `COc1ccc(Nc2nccc(NCCC3CCOCC3)n2)cc1OCCCN1CCCC1` [Compound 178] stands 0.1 to 1 µM. Consider `COc1ccc(Nc2nccc(N3CC(C(N)=O)C3)n2)cc1OCCCN1CCCC1` [Compound 179], for which the half-inhibitory concentration (IC50) was over 10 µM.

Regarding `COc1ccc(Nc2nccc(-n3cc(C)cn3)n2)cc1OCCCN1CCCC1` [Compound 180], the half-inhibitory concentration (IC50) is over 10 µM.

`COc1ccc(Nc2ncc(CO)cn2)cc1OCCCN1CCCC1` [Compound 181]: the IC50 was over 10 µM.

Turning to `COc1cnc(Nc2cc(NCC3CCN(C(C)=O)CC3)ccn2)cc1OCCCN1CCCC1` [Compound 182], the IC50 is over 10 µM. In the case of `COc1ccc(Nc2nccc(NCC3CCN(C(C)=O)CC3)n2)cc1OCC(C)CN1CCCC1` (stereo not shown) [Compound 183], the half-maximal inhibitory concentration (IC50) is 1 to 10 µM. With `COc1ccc(Nc2cncc(NCC3CCN(C(C)=O)CC3)c2)cc1OCCCN1CCCC1` [Compound 184] the figure was over 10 µM.
